What was measured:
[1] = tested on: histamine stimulated bullfrog gastric mucosa; test: H+ secretion by histamine-stimulated bullfrog gastric mucosa (chambered mucosa, titration); design: species or system bullfrogs (Rana catesbeiana); details: for activity at 500 µM: Aquarana catesbeiana, 0.5 mM drug in the secretory solution, histamine stimulated steady-state H+ secretory rate, mean ±SEM, read-out: Rate of H^+ transport (% of control); for reversibility of the inhibition of H^+ transport by elevation of secretory K^+: K+ substituted for Na+ of the secretory solution; for inhibitory effect relative to the other polyamine: spermine versus spermidine
Protocol: This experiment was carried out with gastric mucosa from bullfrogs (Rana catesbeiana). […] The area of the mounted mucosae was 1.5 cm^2. The bathing solutions were bubbled continuously with […] -5% CO2.
The normal nutrient soliution had the following composition (in mM): NaCl 87, KCl 4, CaCl2 2, MgCl2 1, KH2 PO4 1, NaHCO3 18, and glucose 11.
All experiments were conducted under open-circuit conditions at room temperature. The mucosal solutions were collected at 15-minute intervals and placed in thoroughly washed plastic vials. The K^+ content of the secretory medium was determined by atomic absorption spectrophotometer (model 360 Perkin-Elmer). The H^+ secretion was quantitated by titration using 1 mM NaOH to pH 6.5 while gassing with 100% N2.
The H^+ secretory rates are the steady-stage values before (None) and after addition of the drugs attained by the histamine stimulated mucosa. Values are mean ±SEM.

[2] = tested on: gastric (H^+ +K^+)-ATPase; details: vesicles preequilibrated in 150 mM KCl with 0.5 mM compound for 48 hours
Protocol: The gastric microsomal membranes were harvested. All procedures were carried out at 0°-4° C. Briefly, the fundic mucosa from the pig was desquamated and scraped to collect the oxyntic cell-enriched fractions. The mucosal scraping was homogenized gently in a medium consisting of 250 mM sucrose, 0.2 mM EDTA, and 0.2 mM Pipes buffer (pH 6.8) using a loose pestle homogenizer. The homogenate was centrifuged at 8000 g for 5 min. The process was repeated three times. All the supernatants were pooled together and layered over 40 ml of 37% sucrose in 84-ml capacity screw cap tubes and centrifuged at 100,000 g for 5 hours. The microsomal membrane bands appeared at the interface of soluble supernatant and 37% sucrose. The microsomal vesicle bands were collected, diluted with homogenizing medium, and centrifuged at 100,000 g for 90 min. The pellet was suspended in the homogenizing medium with a protein concentration of 0.5 mg/ml. The collected cellular vesicules were inverted, i.e., the interior of the vesicules originally faced the lumen side of the stomach. Vesicular accumulation of H^+ was measured at room temperature. The method uses the change in fluorescence intensity (quenching) of 9-amino-acridine or acridine orange which is proportional to the amount of dye taken up by the microsomes. The amount of dye taken up is a sensitive measure of intravesicular H^+ concentration. […]

H^+ uptake by the vesicles [2]	SMILES	activity at 500 µM [1] [%]	reversibility of the inhibition of H^+ transport by elevation of secretory K^+ [1]	inhibition of gastric H^+ transport, added into the nutrient solution ([1]; nutrient solution, concentration not given)	inhibition of gastric H^+ transport, added into the secretory solution ([1]; secretory solution, concentration not given)	inhibitory effect relative to the other polyamine [1]	inhibition of H^+ transport, added into the secretory solution ([1]; 0.25 mM in secretory solution (lumen side), inhibition increased with concentration)	rate of H^+ transport in K+-depleted mucosa ([1]; 1 mM together with 10 mM K+ in the secretory solution, within 30 min)	reversibility of inhibition by elevation of secretory K^+ in K+-depleted mucosa ([1]; 1 mM with 10 mM K+ in secretory solution, then K+ elevated)	effect on H^+ transport, added to nutrient solution ([1]; 0.5 and 1.0 mM, from the nutrient side)
–	NCCCCN [Putrescine, putrescine, reference compound]	95 ± 10	–	–	–	–	–	–	–	–
–	NCCCCNCCCN [Spermidine, spermidine]	55 ± 2	could also be reversed	not into the nutrient solution	inhibits gastric H^+ transport	much lower than spermine	–	–	–	–
totally obliterated	NCCCNCCCCNCCCN [Spermine, spermine]	28 ± 6	completely reversible	–	–	more potent than spermidine	remarkable inhibition of H^+ transport	near zero	could be reversed	did not have any appreciable effect
